In ChEMBL document CHEMBL4507290 (2021):

Tests used:
[1] = target: Serine/threonine-protein kinase mTOR (Homo sapiens) (UniProt P42345); settings: Compound concentration 1000.0 nM
[2] = target: Serine/threonine-protein kinase Nek3 (Homo sapiens) (UniProt P51956); settings: Compound concentration 1000.0 nM
[3] = target: Serine/threonine-protein kinase DCLK3 (Homo sapiens) (UniProt Q9C098); settings: Compound concentration 1000.0 nM
[4] = target: Misshapen-like kinase 1 (Homo sapiens) (UniProt Q8N4C8); settings: Compound concentration 1000.0 nM
[5] = test system: Receptor-type tyrosine-protein kinase FLT3 (Homo sapiens), P36888 [N841I]; settings: Compound concentration 1000.0 nM
[6] = target: AP2-associated protein kinase 1 (Homo sapiens) (UniProt Q2M2I8); settings: Compound concentration 1000.0 nM
[7] = target: Phosphatidylinositol 5-phosphate 4-kinase type-2 beta (Homo sapiens) (UniProt P78356); settings: Compound concentration 1000.0 nM
[8] = target: Serine/threonine-protein kinase 10 (Homo sapiens) (UniProt O94804); settings: Compound concentration 1000.0 nM
[9] = test system: Phosphatidylinositol 4,5-bisphosphate 3-kinase catalytic subunit alpha isoform (Homo sapiens), P42336 [E545A]; settings: Compound concentration 1000.0 nM
[10] = target: Epithelial discoidin domain-containing receptor 1 (Homo sapiens) (UniProt Q08345); settings: Compound concentration 1000.0 nM
[11] = target: Serine/threonine-protein kinase TAO3 (Homo sapiens) (UniProt Q9H2K8); settings: Compound concentration 1000.0 nM
[12] = target: Calcium/calmodulin-dependent protein kinase type II subunit alpha (Homo sapiens) (UniProt Q9UQM7); settings: Compound concentration 1000.0 nM
[13] = target: Mitogen-activated protein kinase kinase kinase 20 (Homo sapiens) (UniProt Q9NYL2); settings: Compound concentration 1000.0 nM
[14] = test system: Epidermal growth factor receptor (Homo sapiens), P00533 [G719C]; settings: Compound concentration 1000.0 nM
[15] = target: LIM domain kinase 1 (Homo sapiens) (UniProt P53667); settings: Compound concentration 1000.0 nM
[16] = target: Tyrosine-protein kinase Tec (Homo sapiens) (UniProt P42680); settings: Compound concentration 1000.0 nM
[17] = test system: Receptor-type tyrosine-protein kinase FLT3 (Homo sapiens), P36888 [UNDEFINED MUTATION]; settings: Compound concentration 1000.0 nM
[18] = target: Serine/threonine-protein kinase pim-3 (Homo sapiens) (UniProt Q86V86); settings: Compound concentration 1000.0 nM
[19] = test system: Mast/stem cell growth factor receptor Kit (Homo sapiens), P10721 [L576P]; settings: Compound concentration 1000.0 nM
[20] = target: Mitogen-activated protein kinase kinase kinase kinase 5 (Homo sapiens) (UniProt Q9Y4K4); settings: Compound concentration 1000.0 nM
[21] = target: Serine/threonine-protein kinase 17B (Homo sapiens) (UniProt O94768); settings: Compound concentration 1000.0 nM
[22] = target: Focal adhesion kinase 1 (Homo sapiens) (UniProt Q05397); settings: Compound concentration 1000.0 nM
[23] = target: 5-hydroxytryptamine receptor 2A (Homo sapiens) (UniProt P28223); settings: Compound concentration 10.0 uM
[24] = target: Casein kinase II subunit alpha (Homo sapiens) (UniProt P68400); settings: Compound concentration 1000.0 nM
[25] = target: Vascular endothelial growth factor receptor 2 (Homo sapiens) (UniProt P35968); settings: Compound concentration 1000.0 nM
[26] = target: D(1B) dopamine receptor (Homo sapiens) (UniProt P21918); settings: Compound concentration 10.0 uM
[27] = target: Calcium/calmodulin-dependent protein kinase type II subunit delta (Homo sapiens) (UniProt Q13557); settings: Compound concentration 1000.0 nM
[28] = target: Phosphatidylinositol 4,5-bisphosphate 3-kinase catalytic subunit gamma isoform (Homo sapiens) (UniProt P48736); settings: Compound concentration 1000.0 nM
[29] = target: Muscle, skeletal receptor tyrosine-protein kinase (Homo sapiens) (UniProt O15146); settings: Compound concentration 1000.0 nM
[30] = target: Casein kinase I isoform alpha (Homo sapiens) (UniProt P48729); settings: Compound concentration 1000.0 nM
[31] = target: Transient receptor potential cation channel subfamily M member 6 (Homo sapiens) (UniProt Q9BX84); settings: Compound concentration 1000.0 nM
[32] = target: Serine/threonine-protein kinase PAK 4 (Homo sapiens) (UniProt O96013); settings: Compound concentration 1000.0 nM
[33] = test system: Tyrosine-protein kinase ABL1 (Homo sapiens), P00519 [Y253F]; settings: Compound concentration 1000.0 nM
[34] = target: Protein-tyrosine kinase 6 (Homo sapiens) (UniProt Q13882); settings: Compound concentration 1000.0 nM
[35] = target: Tyrosine-protein kinase Mer (Homo sapiens) (UniProt Q12866); settings: Compound concentration 1000.0 nM
[36] = test system: Phosphatidylinositol 4,5-bisphosphate 3-kinase catalytic subunit alpha isoform (Homo sapiens), P42336 [H1047Y]; settings: Compound concentration 1000.0 nM
[37] = target: Aurora kinase A (Homo sapiens) (UniProt O14965); settings: Compound concentration 1000.0 nM
[38] = target: Proto-oncogene tyrosine-protein kinase Src (Homo sapiens) (UniProt P12931); settings: Compound concentration 1000.0 nM
[39] = target: Mitogen-activated protein kinase 7 (Homo sapiens) (UniProt Q13164); settings: Compound concentration 1000.0 nM
[40] = target: Tyrosine-protein kinase ABL1 (Homo sapiens) (UniProt P00519); settings: Compound concentration 1000.0 nM
[41] = target: Insulin receptor (Homo sapiens) (UniProt P06213); settings: Compound concentration 1000.0 nM
[42] = test system: Receptor-type tyrosine-protein kinase FLT3 (Homo sapiens), P36888 [K663Q]; settings: Compound concentration 1000.0 nM
[43] = target: Atypical kinase COQ8A, mitochondrial (Homo sapiens) (UniProt Q8NI60); settings: Compound concentration 1000.0 nM
[44] = target: Rho-associated protein kinase 2 (Homo sapiens) (UniProt O75116); settings: Compound concentration 1000.0 nM
[45] = target: Mitogen-activated protein kinase kinase kinase 5 (Homo sapiens) (UniProt Q99683); settings: Compound concentration 1000.0 nM

Serine/threonine-protein kinase PAK 4 (Homo sapiens), sequence (O96013 whole entry, looked up): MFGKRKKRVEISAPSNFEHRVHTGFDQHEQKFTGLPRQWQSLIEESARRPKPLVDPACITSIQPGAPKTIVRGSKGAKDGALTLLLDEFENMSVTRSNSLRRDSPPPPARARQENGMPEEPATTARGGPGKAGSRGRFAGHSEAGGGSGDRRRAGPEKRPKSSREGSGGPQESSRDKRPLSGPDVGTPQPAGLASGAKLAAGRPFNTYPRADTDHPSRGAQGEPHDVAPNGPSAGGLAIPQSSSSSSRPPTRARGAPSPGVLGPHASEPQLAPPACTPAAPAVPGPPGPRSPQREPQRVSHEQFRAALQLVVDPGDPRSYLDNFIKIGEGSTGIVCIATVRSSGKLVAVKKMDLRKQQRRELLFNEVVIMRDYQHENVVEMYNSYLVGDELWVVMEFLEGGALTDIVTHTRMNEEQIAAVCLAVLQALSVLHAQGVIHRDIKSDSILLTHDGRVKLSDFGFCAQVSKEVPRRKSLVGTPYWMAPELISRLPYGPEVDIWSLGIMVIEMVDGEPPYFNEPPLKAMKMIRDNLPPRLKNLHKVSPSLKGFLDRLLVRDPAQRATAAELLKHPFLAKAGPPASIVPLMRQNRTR
Phosphatidylinositol 5-phosphate 4-kinase type-2 beta (Homo sapiens), sequence (P78356 whole entry): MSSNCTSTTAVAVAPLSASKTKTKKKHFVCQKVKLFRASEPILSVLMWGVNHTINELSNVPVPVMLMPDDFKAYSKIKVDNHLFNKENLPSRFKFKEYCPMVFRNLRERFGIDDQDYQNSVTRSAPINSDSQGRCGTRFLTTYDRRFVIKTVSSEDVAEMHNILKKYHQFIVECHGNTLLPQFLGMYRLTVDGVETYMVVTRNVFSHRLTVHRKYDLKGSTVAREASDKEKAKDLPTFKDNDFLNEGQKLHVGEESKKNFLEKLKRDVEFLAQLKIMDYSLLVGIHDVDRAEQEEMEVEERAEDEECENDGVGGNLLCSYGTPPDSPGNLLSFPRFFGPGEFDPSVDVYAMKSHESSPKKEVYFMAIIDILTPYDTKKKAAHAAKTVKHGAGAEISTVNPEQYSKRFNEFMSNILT
Insulin receptor (Homo sapiens), sequence (P06213 28-758 limits assumed): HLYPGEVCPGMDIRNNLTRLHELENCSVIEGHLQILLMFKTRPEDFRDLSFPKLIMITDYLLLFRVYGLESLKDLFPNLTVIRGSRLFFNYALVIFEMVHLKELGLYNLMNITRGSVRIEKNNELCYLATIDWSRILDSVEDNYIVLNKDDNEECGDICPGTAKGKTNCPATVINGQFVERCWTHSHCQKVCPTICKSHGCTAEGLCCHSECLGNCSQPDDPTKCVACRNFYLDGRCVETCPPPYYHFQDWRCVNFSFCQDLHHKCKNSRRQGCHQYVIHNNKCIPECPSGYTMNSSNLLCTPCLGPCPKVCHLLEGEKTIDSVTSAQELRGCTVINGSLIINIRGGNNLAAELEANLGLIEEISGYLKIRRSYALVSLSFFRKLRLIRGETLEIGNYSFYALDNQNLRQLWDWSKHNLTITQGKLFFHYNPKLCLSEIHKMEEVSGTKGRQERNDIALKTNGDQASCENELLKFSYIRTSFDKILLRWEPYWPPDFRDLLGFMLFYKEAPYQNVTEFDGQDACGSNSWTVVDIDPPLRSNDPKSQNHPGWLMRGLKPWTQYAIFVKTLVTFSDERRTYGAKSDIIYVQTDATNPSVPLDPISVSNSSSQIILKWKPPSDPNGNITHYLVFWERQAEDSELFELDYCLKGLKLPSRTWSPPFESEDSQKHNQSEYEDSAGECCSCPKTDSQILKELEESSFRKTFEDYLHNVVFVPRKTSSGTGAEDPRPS
Insulin receptor (Homo sapiens), sequence (P06213 763-1382 limits assumed): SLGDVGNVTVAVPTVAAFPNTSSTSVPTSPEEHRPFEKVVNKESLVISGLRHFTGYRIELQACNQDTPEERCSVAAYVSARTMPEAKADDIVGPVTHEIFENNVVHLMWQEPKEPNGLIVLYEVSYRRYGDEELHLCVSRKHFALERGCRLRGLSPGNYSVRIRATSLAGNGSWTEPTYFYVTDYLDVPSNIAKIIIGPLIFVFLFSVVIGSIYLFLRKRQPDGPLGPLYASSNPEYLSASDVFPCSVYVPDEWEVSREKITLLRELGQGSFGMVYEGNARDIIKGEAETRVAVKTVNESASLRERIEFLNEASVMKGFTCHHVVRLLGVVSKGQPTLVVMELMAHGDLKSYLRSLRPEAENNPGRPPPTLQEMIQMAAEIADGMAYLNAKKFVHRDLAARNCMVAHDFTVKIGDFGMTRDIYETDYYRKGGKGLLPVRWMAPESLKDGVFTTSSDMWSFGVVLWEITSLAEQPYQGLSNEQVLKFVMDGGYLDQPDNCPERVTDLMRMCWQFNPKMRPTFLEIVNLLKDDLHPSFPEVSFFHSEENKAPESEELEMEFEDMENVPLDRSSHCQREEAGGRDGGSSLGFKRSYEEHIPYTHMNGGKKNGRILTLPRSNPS
Serine/threonine-protein kinase 17B (Homo sapiens), sequence (O94768 whole entry): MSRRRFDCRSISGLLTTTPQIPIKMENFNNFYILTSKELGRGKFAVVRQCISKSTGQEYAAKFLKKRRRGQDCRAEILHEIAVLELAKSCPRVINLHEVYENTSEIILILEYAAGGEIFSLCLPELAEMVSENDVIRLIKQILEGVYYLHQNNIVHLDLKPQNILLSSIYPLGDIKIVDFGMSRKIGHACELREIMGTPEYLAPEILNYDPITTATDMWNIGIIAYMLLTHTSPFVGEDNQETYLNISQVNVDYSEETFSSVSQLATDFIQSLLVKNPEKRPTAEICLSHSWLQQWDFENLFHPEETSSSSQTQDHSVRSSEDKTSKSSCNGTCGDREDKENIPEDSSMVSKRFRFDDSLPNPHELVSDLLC
Tyrosine-protein kinase Tec (Homo sapiens), sequence (P42680 whole entry): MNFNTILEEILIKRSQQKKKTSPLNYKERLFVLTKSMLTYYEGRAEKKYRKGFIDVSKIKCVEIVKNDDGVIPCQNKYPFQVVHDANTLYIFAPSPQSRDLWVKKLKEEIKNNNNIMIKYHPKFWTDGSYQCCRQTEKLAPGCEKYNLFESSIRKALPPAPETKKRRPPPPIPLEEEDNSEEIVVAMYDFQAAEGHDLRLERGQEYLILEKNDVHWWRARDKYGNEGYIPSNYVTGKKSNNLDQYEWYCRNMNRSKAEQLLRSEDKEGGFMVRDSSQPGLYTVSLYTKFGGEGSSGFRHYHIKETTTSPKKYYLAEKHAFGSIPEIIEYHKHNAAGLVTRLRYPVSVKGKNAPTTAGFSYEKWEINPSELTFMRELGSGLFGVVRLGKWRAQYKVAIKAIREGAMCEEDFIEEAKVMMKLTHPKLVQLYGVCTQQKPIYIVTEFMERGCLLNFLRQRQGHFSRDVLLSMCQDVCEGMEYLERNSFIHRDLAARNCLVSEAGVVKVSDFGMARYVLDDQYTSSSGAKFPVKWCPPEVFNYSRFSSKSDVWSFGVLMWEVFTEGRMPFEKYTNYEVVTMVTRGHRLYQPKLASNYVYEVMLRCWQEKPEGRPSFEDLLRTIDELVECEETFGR
D(1B) dopamine receptor (Homo sapiens), sequence (P21918 whole entry): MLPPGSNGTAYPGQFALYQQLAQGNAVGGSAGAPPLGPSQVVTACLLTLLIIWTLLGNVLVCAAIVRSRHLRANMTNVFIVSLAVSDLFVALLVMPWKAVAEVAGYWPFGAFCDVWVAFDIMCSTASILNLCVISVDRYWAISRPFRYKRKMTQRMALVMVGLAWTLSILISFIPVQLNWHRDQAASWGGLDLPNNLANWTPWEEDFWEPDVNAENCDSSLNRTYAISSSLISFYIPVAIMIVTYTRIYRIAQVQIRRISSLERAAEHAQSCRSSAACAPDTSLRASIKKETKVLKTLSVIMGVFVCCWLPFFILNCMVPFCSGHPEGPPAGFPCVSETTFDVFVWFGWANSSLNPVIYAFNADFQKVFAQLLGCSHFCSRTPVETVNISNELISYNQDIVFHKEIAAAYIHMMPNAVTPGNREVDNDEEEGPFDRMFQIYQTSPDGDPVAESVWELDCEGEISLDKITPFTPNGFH
Atypical kinase COQ8A, mitochondrial (Homo sapiens), sequence (Q8NI60 163-647 limits assumed): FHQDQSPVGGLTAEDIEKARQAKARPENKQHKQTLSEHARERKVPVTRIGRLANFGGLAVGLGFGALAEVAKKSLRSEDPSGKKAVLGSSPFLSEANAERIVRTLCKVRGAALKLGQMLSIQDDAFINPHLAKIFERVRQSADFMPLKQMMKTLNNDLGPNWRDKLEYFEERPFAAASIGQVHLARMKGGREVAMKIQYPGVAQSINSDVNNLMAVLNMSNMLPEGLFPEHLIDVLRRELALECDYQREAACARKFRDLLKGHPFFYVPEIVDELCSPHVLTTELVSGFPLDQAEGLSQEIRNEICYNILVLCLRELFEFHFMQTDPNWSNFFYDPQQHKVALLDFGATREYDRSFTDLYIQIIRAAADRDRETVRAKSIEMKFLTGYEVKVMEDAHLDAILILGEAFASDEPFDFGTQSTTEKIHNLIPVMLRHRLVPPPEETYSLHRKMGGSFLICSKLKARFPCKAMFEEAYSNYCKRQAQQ
LIM domain kinase 1 (Homo sapiens), sequence (P53667 whole entry, looked up, the tested form may be a part): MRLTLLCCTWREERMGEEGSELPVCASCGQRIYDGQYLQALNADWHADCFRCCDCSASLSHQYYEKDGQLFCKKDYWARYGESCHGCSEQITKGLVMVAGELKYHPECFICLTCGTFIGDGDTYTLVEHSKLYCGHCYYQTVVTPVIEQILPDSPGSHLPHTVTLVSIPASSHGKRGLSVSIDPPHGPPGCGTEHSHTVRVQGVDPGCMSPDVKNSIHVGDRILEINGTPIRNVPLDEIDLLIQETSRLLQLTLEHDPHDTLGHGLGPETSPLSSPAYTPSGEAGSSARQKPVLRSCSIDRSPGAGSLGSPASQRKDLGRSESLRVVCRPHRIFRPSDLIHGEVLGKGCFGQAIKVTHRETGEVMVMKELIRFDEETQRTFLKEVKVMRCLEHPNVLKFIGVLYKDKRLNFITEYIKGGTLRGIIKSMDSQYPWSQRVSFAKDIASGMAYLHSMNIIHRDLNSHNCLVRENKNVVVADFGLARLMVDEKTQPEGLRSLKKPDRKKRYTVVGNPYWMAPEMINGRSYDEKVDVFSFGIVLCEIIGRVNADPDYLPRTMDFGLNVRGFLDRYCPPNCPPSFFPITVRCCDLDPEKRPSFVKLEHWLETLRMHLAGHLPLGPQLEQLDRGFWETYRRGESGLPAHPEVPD

CN([C@@H]1CCc2c(CC(=O)O)c3cc(S(C)(=O)=O)ccc3n2C1)S(=O)(=O)c1ccc(F)cc1
inactive: residual activity [1] 79% | residual activity [2] 59% | residual activity [3] 71% | residual activity [4] 92% | residual activity [5] 100% | residual activity [6] 100% | residual activity [7] 59% | residual activity [8] 100% | residual activity [9] 96% | residual activity [10] 100% | residual activity [11] 73% | residual activity [12] 100% | residual activity [13] 80% | residual activity [14] 98% | residual activity [15] 100% | residual activity [16] 100% | residual activity [17] 98% | residual activity [18] 100% | residual activity [19] 89% | residual activity [20] 100% | residual activity [21] 85% | residual activity [22] 99% | inhibition [23] 7.27% | residual activity [24] 91% | residual activity [25] 85% | inhibition [26] -6.04% | residual activity [27] 100% | residual activity [28] 100% | residual activity [29] 100% | residual activity [30] 100% | residual activity [31] 74% | residual activity [32] 100% | residual activity [33] 82% | residual activity [34] 92% | residual activity [35] 100% | residual activity [36] 90% | residual activity [37] 100% | residual activity [38] 96% | residual activity [39] 96% | residual activity [40] 95% | residual activity [41] 100% | residual activity [42] 100% | residual activity [43] 87% | residual activity [44] 100% | residual activity [45] 90%

CN([C@@H]1CCc2c(CC(=O)O)c3ccccc3n2C1)S(=O)(=O)c1ccc(F)cc1 [MK-7246]
inactive: residual activity [1] 100% | residual activity [2] 93% | residual activity [3] 99% | residual activity [4] 100% | residual activity [5] 100% | residual activity [6] 100% | residual activity [7] 80% | residual activity [8] 100% | residual activity [9] 100% | residual activity [10] 78% | residual activity [11] 73% | residual activity [12] 91% | residual activity [13] 99% | residual activity [14] 100% | residual activity [15] 100% | residual activity [16] 100% | residual activity [17] 96% | residual activity [18] 100% | residual activity [19] 100% | residual activity [20] 100% | residual activity [21] 85% | residual activity [22] 100% | inhibition [23] -6.57% | residual activity [24] 82% | residual activity [25] 82% | inhibition [26] 1.94% | residual activity [27] 100% | residual activity [28] 100% | residual activity [29] 97% | residual activity [30] 80% | residual activity [31] 85% | residual activity [32] 100% | residual activity [33] 100% | residual activity [34] 100% | residual activity [35] 100% | residual activity [36] 97% | residual activity [37] 100% | residual activity [38] 100% | residual activity [39] 100% | residual activity [40] 100% | residual activity [41] 100% | residual activity [42] 100% | residual activity [43] 100% | residual activity [44] 100% | residual activity [45] 100%
